Legend:
Test in all cases: Agarose dilution MIC assay
Type in all cases: cell-based
[1] = test system: S. mitis; conditions: S. mitis strain SMT014
Text: (§1) The agarose dilution assay measures antimicrobial activity of peptides and peptide analogues. The activity is expressed as the minimum inhibitory concentration (MIC) in μg/ml of the peptide.
(§2) In order to mimic in vivo conditions, calcium and magnesium supplemented Mueller Hinton broth is used in combination with a low EEO agarose as the bacterial growth medium. Agarose, rather than agar, is used as the charged groups in agar prevent peptide diffusion through the medium. The medium is autoclaved, then cooled to 50-55° C. in a water bath before aseptic addition of a peptide solution. The same volume of different concentrations of peptide solution is added to the cooled, molten agarose that is then poured into a petri plate to a depth of 3-4 mm and allowed to solidify.
(§3) The bacterial inoculum is adjusted to a 0.5 McFarland turbidity standard (PML Microbiological) and then diluted 1:10 before application on to the agarose plate. The final inoculum applied to the agarose is approximately 10^4 CFU in a 5-8 mm diameter spot. The agarose plates are incubated at 35-37° C. for 16 to 20 hours.

[2] = test system: S. pneumoniae; conditions: S. pneumoniae strain SPN002
Text: as §1, §2, §3

[3] = test system: E. faecalis; conditions: E. faecalis strain EFS001
Text: as §1, §2, §3

[4] = test system: S. maltophilia; conditions: S. maltophilia strain SMA002
Text: as §1, §2, §3

[5] = test system: S. aureus; conditions: for Minimum Inhibitory Concentration: S. aureus strain SAU014, agarose dilution
Text: as §1, §2, §3

[6] = test system: S. pyogenes; conditions: S. pyogenes strain SPY001
Text: as §1, §2, §3

[7] = test system: E. coli; conditions: E. coli strain ECO005
Text: as §1, §2, §3

[8] = test system: P. aeruginosa; conditions: for Minimum Inhibitory Concentration: P. aeruginosa strain PAE004, agarose dilution
Text: as §1, §2, §3

[9] = test system: C. neoformans; conditions: C. neoformans strain CNE001
Text: as §1, §2, §3

[10] = test system: K. pneumoniae
Text: as §1, §2, §3

[11] = test system: A. calcoaceticus; conditions: A. calcoaceticus strain ACA002
Text: as §1, §2, §3

[12] = test system: S. epidermidis; conditions: for Minimum Inhibitory Concentration: S. epidermidis strain SEP010, agarose dilution
Text: as §1, §2, §3

[13] = test system: C. albicans; conditions: for Minimum Inhibitory Concentration: C. albicans strain CAL002, agarose dilution
Text: as §1, §2, §3

[14] = test system: E. cloacae; conditions: E. cloacae strain ECL007
Text: as §1, §2, §3

[15] = test system: C. jeikeium; conditions: C. jeikeium strain CJK005
Text: as §1, §2, §3

[16] = test system: S. marcescens; conditions: S. marcescens strain SMS003
Text: as §1, §2, §3

Substance: I L K W V W W V W R R K [Peptide 11B36CN]
- Minimum Inhibitory Concentration [1]: 2 µg/mL
- Minimum Inhibitory Concentration [2]: 4 µg/mL
- Minimum Inhibitory Concentration [3]: 16 µg/mL
- Minimum Inhibitory Concentration [4]: 8 µg/mL
- Minimum Inhibitory Concentration [5]: 2 µg/mL
- Minimum Inhibitory Concentration [6]: 2 µg/mL
- Minimum Inhibitory Concentration [7]: 8 µg/mL
- Minimum Inhibitory Concentration [8]: 32 µg/mL
- Minimum Inhibitory Concentration [9]: 16 µg/mL
- Minimum Inhibitory Concentration ([10]; K. pnenmoniae strain KPN001): 8 µg/mL
- Minimum Inhibitory Concentration [11]: 2 µg/mL
- Minimum Inhibitory Concentration [12]: 2 µg/mL
- Minimum Inhibitory Concentration [13]: 8 µg/mL
- Minimum Inhibitory Concentration [14]: 64 µg/mL
- Minimum Inhibitory Concentration [15]: 1 µg/mL
- Minimum Inhibitory Concentration [16]: >128 µg/mL

Substance: I L R R W V W W V W R R K [Peptide 11F5CN]
- Minimum Inhibitory Concentration [1]: 2 µg/mL
- Minimum Inhibitory Concentration [2]: 4 µg/mL
- Minimum Inhibitory Concentration [3]: 16 µg/mL
- Minimum Inhibitory Concentration [4]: 16 µg/mL
- Minimum Inhibitory Concentration [5]: 8 µg/mL
- Minimum Inhibitory Concentration [6]: 2 µg/mL
- Minimum Inhibitory Concentration [7]: 16 µg/mL
- Minimum Inhibitory Concentration [8]: 64 µg/mL
- Minimum Inhibitory Concentration [9]: 8 µg/mL
- Minimum Inhibitory Concentration ([10]; K. pnenmoniae strain KPN001): 64 µg/mL
- Minimum Inhibitory Concentration [11]: 4 µg/mL
- Minimum Inhibitory Concentration [12]: 2 µg/mL
- Minimum Inhibitory Concentration [13]: 32 µg/mL
- Minimum Inhibitory Concentration [14]: 128 µg/mL
- Minimum Inhibitory Concentration [15]: 0.5 µg/mL
- Minimum Inhibitory Concentration [16]: >128 µg/mL

Substance: I L R W P W W P W R R K [Peptide 11B7CN]
- MIC ([5]; S. aureus (SA016), Table 6): Organism Tested: S. aureus (SA016) MIC = 2 ug/ml
- MIC ([8]; P. aeruginosa (PA004), Table 6): Organism Tested: P. aeruginosa (PA004) MIC = 128 ug/ml
- MIC ([12]; S. epidermidis (SE010), Table 6): Organism Tested: S. epidermidis (SE010) MIC = 4 ug/ml
- MIC ([13]; C. albicans (CA002), Table 6): Organism Tested: C. albicans (CA002) MIC = 64 ug/ml

Substance: R L F V W W V F R R [Peptide 11F64CN]
- Minimum Inhibitory Concentration [1]: 1 µg/mL
- Minimum Inhibitory Concentration [2]: 2 µg/mL
- Minimum Inhibitory Concentration [3]: 2 µg/mL
- Minimum Inhibitory Concentration [4]: 1 µg/mL
- Minimum Inhibitory Concentration [5]: 1 µg/mL
- Minimum Inhibitory Concentration [6]: 1 µg/mL
- Minimum Inhibitory Concentration [7]: 2 µg/mL
- Minimum Inhibitory Concentration [8]: 16 µg/mL
- Minimum Inhibitory Concentration [9]: 8 µg/mL
- Minimum Inhibitory Concentration ([10]; K. pnenmoniae strain KPN001): 2 µg/mL
- Minimum Inhibitory Concentration [11]: 2 µg/mL
- Minimum Inhibitory Concentration [12]: 1 µg/mL
- Minimum Inhibitory Concentration [13]: 16 µg/mL
- Minimum Inhibitory Concentration [14]: 16 µg/mL
- Minimum Inhibitory Concentration [15]: 0.5 µg/mL
- Minimum Inhibitory Concentration [16]: >128 µg/mL

Substance: R L G G G W V W W V W R R [Peptide 11F50CN]
- Minimum Inhibitory Concentration [1]: 1 µg/mL
- Minimum Inhibitory Concentration [2]: 2 µg/mL
- Minimum Inhibitory Concentration [3]: 16 µg/mL
- Minimum Inhibitory Concentration [4]: 8 µg/mL
- Minimum Inhibitory Concentration [5]: 2 µg/mL
- Minimum Inhibitory Concentration [6]: 1 µg/mL
- Minimum Inhibitory Concentration [7]: 4 µg/mL
- Minimum Inhibitory Concentration [8]: >128 µg/mL
- Minimum Inhibitory Concentration [9]: 16 µg/mL
- Minimum Inhibitory Concentration ([10]; K. pnenmoniae strain KPN001): 16 µg/mL
- Minimum Inhibitory Concentration [11]: 2 µg/mL
- Minimum Inhibitory Concentration [12]: 1 µg/mL
- Minimum Inhibitory Concentration [13]: 32 µg/mL
- Minimum Inhibitory Concentration [14]: >128 µg/mL
- Minimum Inhibitory Concentration [15]: 0.5 µg/mL
- Minimum Inhibitory Concentration [16]: >128 µg/mL

Substance: R L V V W W V V R R [Peptide 11F63CN]
- Minimum Inhibitory Concentration [1]: 2 µg/mL
- Minimum Inhibitory Concentration [2]: 4 µg/mL
- Minimum Inhibitory Concentration [3]: 4 µg/mL
- Minimum Inhibitory Concentration [4]: 0.5 µg/mL
- Minimum Inhibitory Concentration [5]: 2 µg/mL
- Minimum Inhibitory Concentration [6]: 1 µg/mL
- Minimum Inhibitory Concentration [7]: 2 µg/mL
- Minimum Inhibitory Concentration [8]: 8 µg/mL
- Minimum Inhibitory Concentration [9]: 8 µg/mL
- Minimum Inhibitory Concentration ([10]; K. pnenmoniae strain KPN001): 4 µg/mL
- Minimum Inhibitory Concentration [11]: 2 µg/mL
- Minimum Inhibitory Concentration [12]: 1 µg/mL
- Minimum Inhibitory Concentration [13]: 16 µg/mL
- Minimum Inhibitory Concentration [14]: 16 µg/mL
- Minimum Inhibitory Concentration [15]: 1 µg/mL
- Minimum Inhibitory Concentration [16]: >128 µg/mL

Substance: R L W V W W V W R r [Peptide 11F68CN]
- Minimum Inhibitory Concentration [1]: 1 µg/mL
- Minimum Inhibitory Concentration [2]: 2 µg/mL
- Minimum Inhibitory Concentration [3]: 2 µg/mL
- Minimum Inhibitory Concentration [4]: 2 µg/mL
- Minimum Inhibitory Concentration [5]: 2 µg/mL
- Minimum Inhibitory Concentration [6]: 1 µg/mL
- Minimum Inhibitory Concentration [7]: 2 µg/mL
- Minimum Inhibitory Concentration [8]: 32 µg/mL
- Minimum Inhibitory Concentration [9]: 8 µg/mL
- Minimum Inhibitory Concentration ([10]; K. pnenmoniae strain KPN001): 2 µg/mL
- Minimum Inhibitory Concentration [11]: 1 µg/mL
- Minimum Inhibitory Concentration [12]: 1 µg/mL
- Minimum Inhibitory Concentration [13]: 32 µg/mL
- Minimum Inhibitory Concentration [14]: 32 µg/mL
- Minimum Inhibitory Concentration [15]: 0.5 µg/mL
- Minimum Inhibitory Concentration [16]: >128 µg/mL

Substance: W (Dab) W W (Dab) P (Dab) W (Dab) W P (Dab) W [Peptide 11J68CN]
- Minimum Inhibitory Concentration [2]: 1 µg/mL
- Minimum Inhibitory Concentration [4]: 4 µg/mL
- Minimum Inhibitory Concentration [6]: 5e-07 µg/mL
- Minimum Inhibitory Concentration [8]: 4e-06 µg/mL
- Minimum Inhibitory Concentration [9]: 1 µg/mL
- Minimum Inhibitory Concentration ([10]; K. pneumoniae strain KPN001): 4 µg/mL
- Minimum Inhibitory Concentration [11]: 5e-07 µg/mL
- Minimum Inhibitory Concentration [14]: 1.6e-05 µg/mL
- Minimum Inhibitory Concentration [15]: <0.25 µg/mL

Substance: W (Orn) W W (Orn) P (Orn) W (Orn) W P (Orn) W [Peptide 11J67CN]
- Minimum Inhibitory Concentration [2]: 2 µg/mL
- Minimum Inhibitory Concentration [3]: 6.4e-05 µg/mL
- Minimum Inhibitory Concentration [4]: 1 µg/mL
- Minimum Inhibitory Concentration [5]: 2e-06 µg/mL
- Minimum Inhibitory Concentration [9]: 2 µg/mL
- Minimum Inhibitory Concentration ([10]; K. pneumoniae strain KPN001): 8 µg/mL
- Minimum Inhibitory Concentration [11]: 1e-06 µg/mL
- Minimum Inhibitory Concentration [15]: <0.25 µg/mL

Substance: W (Orn) W W (Orn) V A W (Orn) W V (Orn) W [Peptide 11J58CN]
- Minimum Inhibitory Concentration [1]: 1e-06 µg/mL
- Minimum Inhibitory Concentration [2]: 2 µg/mL
- Minimum Inhibitory Concentration [3]: 3.2e-05 µg/mL
- Minimum Inhibitory Concentration [4]: 2 µg/mL
- Minimum Inhibitory Concentration [8]: 1.6e-05 µg/mL
- Minimum Inhibitory Concentration [9]: 2 µg/mL
- Minimum Inhibitory Concentration ([10]; K. pneumoniae strain KPN001): 2 µg/mL
- Minimum Inhibitory Concentration [11]: 1e-06 µg/mL
- Minimum Inhibitory Concentration [14]: 1.6e-05 µg/mL
- Minimum Inhibitory Concentration [15]: 0.5 µg/mL

Substance: W P W W P W R R K [Peptide 11G27CN]
- Minimum Inhibitory Concentration [2]: 32 µg/mL
- Minimum Inhibitory Concentration [4]: 64 µg/mL
- Minimum Inhibitory Concentration [7]: 6.4e-05 µg/mL
- Minimum Inhibitory Concentration [8]: >0.000128 µg/mL
- Minimum Inhibitory Concentration [9]: 16 µg/mL
- Minimum Inhibitory Concentration ([10]; K. pneumoniae strain KPN001): >128 µg/mL
- Minimum Inhibitory Concentration [11]: 1.6e-05 µg/mL
- Minimum Inhibitory Concentration [12]: 8e-06 µg/mL
- Minimum Inhibitory Concentration [15]: 0.5 µg/mL

Substance: W R W W K P K W R W P K W [Peptide 11J02ACN]
- Minimum Inhibitory Concentration [2]: 16 µg/mL
- Minimum Inhibitory Concentration [3]: 6.4e-05 µg/mL
- Minimum Inhibitory Concentration [4]: 8 µg/mL
- Minimum Inhibitory Concentration [5]: 8e-06 µg/mL
- Minimum Inhibitory Concentration [7]: 1.6e-05 µg/mL
- Minimum Inhibitory Concentration [9]: 16 µg/mL
- Minimum Inhibitory Concentration ([10]; K. pneumoniae strain KPN001): 32 µg/mL
- Minimum Inhibitory Concentration [14]: >3.2e-05 µg/mL
- Minimum Inhibitory Concentration [15]: 0.5 µg/mL

Substance: W R W W K V W R W V K W [Peptide 11J36CN]
- Minimum Inhibitory Concentration [1]: 1e-06 µg/mL
- Minimum Inhibitory Concentration [2]: 2 µg/mL
- Minimum Inhibitory Concentration [4]: 2 µg/mL
- Minimum Inhibitory Concentration [9]: 4 µg/mL
- Minimum Inhibitory Concentration ([10]; K. pneumoniae strain KPN001): 4 µg/mL
- Minimum Inhibitory Concentration [15]: 0.5 µg/mL

Substance: W V R L W W R R V W [Peptide 11F93CN]
- Minimum Inhibitory Concentration [2]: 4 µg/mL
- Minimum Inhibitory Concentration [4]: 8 µg/mL
- Minimum Inhibitory Concentration [5]: 2e-06 µg/mL
- Minimum Inhibitory Concentration [9]: 8 µg/mL
- Minimum Inhibitory Concentration ([10]; K. pneumoniae strain KPN001): 64 µg/mL
- Minimum Inhibitory Concentration [15]: 0.5 µg/mL

Reference: patent US6835536B2, “Antimicrobial cationic peptides and formulations thereof” (Micrologix Biotech Inc., priority 2001, dated 2004)
